Measurements from patent publication US20070213326A1, “SUBSTITUTED INDOLE COMPOUNDS AND THEIR USE AS 5-HT6 RECEPTOR MODULATORS” (LABORATORIOS DEL DR. ESTEVE S.A., priority 2004, published 2007).
Counter-ions that a name gives are not always drawn.

Molecular target: T1, 5HT6-human recombinant receptor (Homo sapiens, UniProt P50406)
T1 construct: purchased Receptor Biology; host or cells: HEK-293 cells (membranes)
Test: Binding to serotonin receptor 5-HT6 ([H]-LSD radioligand, HEK-293 cell membranes)
Conditions: membranes of HEK-293 cells expressing 5HT6-human recombinant receptor; [H]-LSD 2.7 nM; 60 minutes at 37° C.
Experimental: I) Binding to Serotonin Receptor 5-HT6
Cell membranes of HEK-293 cells expressing the 5HT6-human recombinant receptor were supplied by Receptor Biology. In said membranes the receptor concentration is 2.18 pmol/mg protein and the protein concentration is 9.17 mg/ml. The experimental protocol follows the method of B. L. Roth et al. [B. L. Roth, S. C. Craigo, M. S. Choudhary, A. Uluer, F. J. Monsma, Y. Shen, H. Y. Meltzer, D. R. Sibley: Binding of Typical and Atypical Antipsychotic Agents to 5-Hydroxytryptamine-6 and Hydroxytryptamine-7 Receptors. The Journal of Pharmacology and Experimental Therapeutics, 1994, 268, 1403] with the following slight changes. The respective part of the literature description is hereby incorporated by reference and forms part of the disclosure.
The commercial membrane is diluted (1:40 dilution) with the binding buffer: 50 mM Tris-HCl, 10 mM MgCl2, 0.5 mM EDTA (pH 7.4). The radioligand used is [H]-LSD at a concentration of 2.7 nM with a final volume of 200 μl. Incubation is initiated by adding 100 μl of membrane suspension, (≈22.9 μg membrane protein), and is prolonged for 60 minutes at a temperature of 37° C. The incubation is ended by fast filtration in a Brandel Cell Harvester through fiber glass filters made by Schleicher & Schuell G F 3362 pretreated with a solution of polyethylenimine at 0.5%. The filters are washed three times with three milliliters of buffer Tris-HCl 50 mM pH 7.4. The filters are transferred to flasks and 5 ml of Ecoscint H liquid scintillation cocktail are added to each flask. The flasks are allowed to reach equilibrium for several hours before counting with a Wallac Winspectral 1414 scintillation counter. Non-specific binding is determined in the presence of 100 μM of serotonin. Tests were made in triplicate. The inhibition constants (Ki, nM) were calculated by non-linear regression analysis using the program EBDA/LIGAND described in Munson and Rodbard, Analytical Biochemistry, 1980, 107, 220, the respective part of which is hereby incorporated by reference and forms part of the disclosure.
The binding of the substituted indole compounds to the 5-HT6 receptor was determined as described above.

T1 sequence (P50406 whole entry): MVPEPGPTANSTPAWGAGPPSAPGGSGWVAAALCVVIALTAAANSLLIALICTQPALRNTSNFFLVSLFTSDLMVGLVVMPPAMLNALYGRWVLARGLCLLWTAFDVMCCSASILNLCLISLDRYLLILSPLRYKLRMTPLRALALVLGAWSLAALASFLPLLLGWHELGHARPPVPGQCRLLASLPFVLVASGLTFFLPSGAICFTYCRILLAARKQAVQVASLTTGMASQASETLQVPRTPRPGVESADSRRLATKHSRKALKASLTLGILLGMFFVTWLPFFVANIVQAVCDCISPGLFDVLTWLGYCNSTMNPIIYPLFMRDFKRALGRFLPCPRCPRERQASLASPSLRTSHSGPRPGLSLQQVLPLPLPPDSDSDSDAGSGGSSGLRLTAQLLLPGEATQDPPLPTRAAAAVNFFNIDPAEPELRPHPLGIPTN

SMILES	Ki
CCN(CC)CCc1c[nH]c2cc(NS(=O)(=O)c3c(Cl)nc4sccn34)ccc12 [Example 4, 6-chloro-N-(3-(2-(diethylamino)ethyl)-1H-indol-6-yl)imidazo[2,1-b]thiazole-5-sulfonamide]	42.8 nM
CN(C)CCc1c[nH]c2cc(NS(=O)(=O)c3c(Cl)nc4sccn34)ccc12 [Example 13, 6-chloro-N-(3-(2-(dimethylamino)ethyl)-1H-indol-6-yl)imidazo[2,1-b]thiazole-5-sulfonamide]	7.3 nM
CN(C)CCc1c[nH]c2cc(NS(=O)(=O)c3ccc4ccccc4c3)ccc12 [Example 11, N-(3-(2-(dimethylamino)ethyl)-1H-indol-6-yl)naphthalene-2-sulfonamide]	42.6 nM
CN(C)CCc1c[nH]c2cc(NS(=O)(=O)c3cccc4ccccc34)ccc12 [Example 12, N-(3-(2-(dimethylamino)ethyl)-1H-indol-6-yl)naphthalene-1-sulfonamide]	31.1 nM

System: not given
Test: not given
Conditions: not given

melting point	SMILES
198 to 200 °C	CN(C)CCc1c[nH]c2cccc(NS(=O)(=O)c3ccc4c(Cl)cccc4c3)c12
216 °C	CN(C)CCc1c[nH]c2cccc(NS(=O)(=O)c3c(Cl)nc4sccn34)c12
235 to 236 °C	Cc1c(S(=O)(=O)Nc2cccc3[nH]cc(CCN(C)C)c23)sc2ccc(Cl)cc12
183 to 187 °C	CCN(CC)CCc1c[nH]c2cc(NS(=O)(=O)c3cccc4ccccc34)ccc12
87 to 90 °C	CCN(CC)CCc1c[nH]c2c(N(S(=O)(=O)c3sc4ccc(Cl)cc4c3C)S(=O)(=O)c3sc4ccc(Cl)cc4c3C)cccc12
200 to 205 °C	CCN(CC)CCc1c[nH]c2cc(NS(=O)(=O)c3cc(Cl)c(Cl)s3)ccc12
187 to 190 °C	CN(C)CCc1c[nH]c2cc(NS(=O)(=O)c3cccc4c(Cl)cccc34)ccc12
182 to 184 °C	CN(C)CCc1c[nH]c2cccc(NS(=O)(=O)c3ccc(-c4ccccc4)cc3)c12
78 to 82 °C	CN(C)CCc1c[nH]c2cccc(NS(=O)(=O)c3ccc(Oc4ccccc4)cc3)c12
96 to 98 °C	CN(C)CCc1c[nH]c2cc(NS(=O)(=O)c3cc(Cl)cc(Cl)c3)ccc12
81 to 85 °C	CCN(CC)CCc1c[nH]c2cc(NS(=O)(=O)c3ccc(-c4ccccc4)cc3)ccc12
110 to 120 °C	Cc1c(S(=O)(=O)N(c2cccc3c(CCN(C)C)c[nH]c23)S(=O)(=O)c2sc3ccc(Cl)cc3c2C)sc2ccc(Cl)cc12
212 to 215 °C	CN(C)CCc1c[nH]c2cccc(NS(=O)(=O)c3cc(Cl)cc(Cl)c3)c12
208 °C	CCOC(CN(C)C)c1c[nH]c2cc(N(S(=O)(=O)c3sc4ccc(Cl)cc4c3C)S(=O)(=O)c3sc4ccc(Cl)cc4c3C)ccc12 (stereo not shown)
146 to 147 °C	CCN(CC)CCc1c[nH]c2cc(NS(=O)(=O)c3ccc4ccccc4c3)ccc12
187 to 188 °C	CN(C)CCc1c[nH]c2cc(N(S(=O)(=O)c3cc(Cl)c(Cl)s3)S(=O)(=O)c3cc(Cl)c(Cl)s3)ccc12

melting point	SMILES
130 to 140 °C	Cc1c(S(=O)(=O)Nc2cccc3c(CCN(C)C)c[nH]c23)sc2ccc(Cl)cc12
86 to 90 °C	CCN(CC)CCc1c[nH]c2cc(NS(=O)(=O)c3cccc4c(Cl)cccc34)ccc12
164 to 168 °C	CN(C)CCc1c[nH]c2cc(NS(=O)(=O)c3ccc(-c4ccccc4)cc3)ccc12
90 °C	CN(C)CCc1c[nH]c2cc(NS(=O)(=O)CCc3cccc4ccccc34)ccc12
170 to 171 °C	CN(C)CCc1c[nH]c2cc(NS(=O)(=O)c3ccc(Oc4ccccc4)cc3)ccc12
223 to 225 °C	CN(C)CCc1c[nH]c2cccc(NS(=O)(=O)c3cccc4ccccc34)c12
103 to 107 °C	CN(C)CCc1c[nH]c2cc(N(S(=O)(=O)c3cc(Cl)cc(Cl)c3)S(=O)(=O)c3cc(Cl)cc(Cl)c3)ccc12
165 to 168 °C	CN(C)CCc1c[nH]c2cccc(NS(=O)(=O)c3ccc4ccccc4c3)c12
111 to 114 °C	CN(C)CCc1c[nH]c2cc(NS(=O)(=O)c3cc(Cl)c(Cl)s3)ccc12
155 to 156 °C	CCOC(CN(CC)CC)c1c[nH]c2c(N(S(=O)(=O)c3sc4ccc(Cl)cc4c3C)S(=O)(=O)c3sc4ccc(Cl)cc4c3C)cccc12 (stereo not shown)
79 to 85 °C	CCN(CC)CCc1c[nH]c2cc(NS(=O)(=O)c3cc(Cl)cc(Cl)c3)ccc12
210 °C	CN(C)CCc1c[nH]c2cc(N(S(=O)(=O)c3c(Cl)nc4sccn34)S(=O)(=O)c3c(Cl)nc4sccn34)ccc12
50 to 53 °C	CCN(CC)CCc1c[nH]c2cc(NS(=O)(=O)c3ccc(Oc4ccccc4)cc3)ccc12
170 to 172 °C	CN(C)CCc1c[nH]c2cccc(NS(=O)(=O)CCc3cccc4ccccc34)c12 (as salt: TFA)
145 °C	CCOC(CN(C)C)c1c[nH]c2c(NS(=O)(=O)c3sc4ccc(Cl)cc4c3C)cccc12 (stereo not shown)
79 to 84 °C	CCN(CC)CCc1c[nH]c2c(NS(=O)(=O)c3sc4ccc(Cl)cc4c3C)cccc12

SMILES	melting point
CCN(CC)CCc1c[nH]c2cc(NS(=O)(=O)c3c(Cl)nc4sccn34)ccc12 [Example 4, 6-chloro-N-(3-(2-(diethylamino)ethyl)-1H-indol-6-yl)imidazo[2,1-b]thiazole-5-sulfonamide]	210 to 212 °C
CN(C)CCc1c[nH]c2cc(NS(=O)(=O)c3c(Cl)nc4sccn34)ccc12 [Example 13, 6-chloro-N-(3-(2-(dimethylamino)ethyl)-1H-indol-6-yl)imidazo[2,1-b]thiazole-5-sulfonamide]	138 to 142 °C
CN(C)CCc1c[nH]c2cc(NS(=O)(=O)c3ccc4ccccc4c3)ccc12 [Example 11, N-(3-(2-(dimethylamino)ethyl)-1H-indol-6-yl)naphthalene-2-sulfonamide]	150 to 151 °C
CN(C)CCc1c[nH]c2cc(NS(=O)(=O)c3cccc4ccccc34)ccc12 [Example 12, N-(3-(2-(dimethylamino)ethyl)-1H-indol-6-yl)naphthalene-1-sulfonamide]	167 to 168 °C
